Test results: PubChem BioAssay AID256 (DTP/NCI, 2004)
“And” between values parts separate entries of the source, which are not always exact repeats. Equal entries are not always repeated. Toxic doses and inconclusive results are not listed. Rule for the calls: active = survival T/C of 150% or more; inactive = T/C below 125% in these data.

System: CD2F1 mice, L1210 leukemia ip, survival T/C
Assay: NCI In Vivo Anticancer Drug Screen. Data for tumor model L1210 Leukemia (intraperitoneal) in CD2F1 (CDF1) mice
Conditions: higher = longer survival
Method in brief: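 In this screen, transplantable tumors were grown in mice given either the compound or its vehicle. Results were expressed as the treated measurement relative to the control measurement.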

[1] = endpoint: mean survival time, dose: 100.0 mg/kg/injection, schedule: Q01DX009 (ip), vehicle: saline with Tween-80
[2] = endpoint: mean survival time, dose: 100.0 mg/kg/injection, schedule: Q04DX003 (ip), vehicle: saline with Tween-80
[3] = endpoint: mean survival time, dose: 200.0 mg/kg/injection, schedule: Q01DX009 (ip), vehicle: saline with Tween-80
[4] = endpoint: mean survival time, dose: 200.0 mg/kg/injection, schedule: Q04DX003 (ip), vehicle: saline with Tween-80
[5] = endpoint: mean survival time, dose: 400.0 mg/kg/injection, schedule: Q04DX003 (ip), vehicle: saline with Tween-80

Measured: T/C

CN(C)CCOc1ccccc1Cc1ccccc1
inactive: endpoint: mean survival time, dose: 50.0 mg/kg/injection, schedule: Q01DX009 (ip), vehicle: saline with Tween-80 104 % of control | [1] 119 % of control | [2] 98 % of control | [3] 107 % of control | [4] 97 % of control

CNC(=O)Oc1cccc(NC(=O)OCCOC)c1
inactive: [2] 99 % of control | [4] 99 % of control | [5] 92 % of control

c1ccc(Oc2ccc(Nc3c4ccccc4nc4ccccc34)cc2)cc1
inactive: endpoint: mean survival time, dose: 100.0 mg/kg/injection, schedule: Q04DX002 (ip), vehicle: saline with Tween-80 101 % of control | endpoint: mean survival time, dose: 200.0 mg/kg/injection, schedule: Q04DX002 (ip), vehicle: saline with Tween-80 101 % of control | endpoint: mean survival time, dose: 400.0 mg/kg/injection, schedule: Q04DX002 (ip), vehicle: saline with Tween-80 104 % of control

Cc1ccnc(N)c1N
inactive: endpoint: mean survival time, dose: 12.5 mg/kg/injection, schedule: Q01DX009 (ip), vehicle: other 91 % of control | endpoint: mean survival time, dose: 25.0 mg/kg/injection, schedule: Q01DX009 (ip), vehicle: other 94 % of control

O=S(=O)(O)c1ccc(/C2=c3\cc/c([n-]3)=C(\c3ccc(S(=O)(=O)O)cc3)c3ccc([n-]3)/C(c3ccc(S(=O)(=O)O)cc3)=c3/cc/c([n-]3)=C(\c3ccc(S(=O)(=O)O)cc3)c3ccc2[n-]3)cc1.[Co]
inactive: endpoint: mean survival time, dose: 50.0 mg/kg/injection, schedule: Q04DX002 (ip), vehicle: saline 104 % of control | endpoint: mean survival time, dose: 100.0 mg/kg/injection, schedule: Q04DX002 (ip), vehicle: saline 101 % of control | endpoint: mean survival time, dose: 200.0 mg/kg/injection, schedule: Q04DX002 (ip), vehicle: saline 101 % of control

CC(=O)NCCN=Cc1ccccc1
inactive: [1] 97 % of control | [2] 95 % of control | [3] 95 % of control | [4] 95 % of control | endpoint: mean survival time, dose: 400.0 mg/kg/injection, schedule: Q01DX009 (ip), vehicle: saline with Tween-80 97 % of control | [5] 97 % of control

O=C1CC(C(=O)O)C2(CCCCCC2)O1 (stereo not drawn)
inactive: endpoint: median survival time, dose: 12.5 mg/kg/injection, schedule: Q04DX003 (ip), vehicle: saline with Tween-80 90 % of control | endpoint: median survival time, dose: 25.0 mg/kg/injection, schedule: Q04DX003 (ip), vehicle: saline with Tween-80 90 % of control | endpoint: median survival time, dose: 50.0 mg/kg/injection, schedule: Q04DX003 (ip), vehicle: saline with Tween-80 100 % of control

Oc1cccc2c1NCCC2
inactive: endpoint: mean survival time, dose: 25.0 mg/kg/injection, schedule: Q04DX003 (ip), vehicle: saline with Tween-80 104 % of control | endpoint: mean survival time, dose: 50.0 mg/kg/injection, schedule: Q04DX003 (ip), vehicle: saline with Tween-80 98 % of control | [2] 91 % of control and 102 % of control

CC(C)=CCC(OC(=O)C=C(C)C)c1cc(O)c2c(O)ccc(O)c2c1O.[Pt] (stereo not drawn)
inactive: endpoint: mean survival time, dose: 1.56 mg/kg/injection, schedule: Q04DX003 (ip), vehicle: distilled water + Tween-80 104 % of control | endpoint: mean survival time, dose: 3.12 mg/kg/injection, schedule: Q04DX003 (ip), vehicle: distilled water + Tween-80 104 % of control | endpoint: mean survival time, dose: 6.25 mg/kg/injection, schedule: Q04DX003 (ip), vehicle: distilled water + Tween-80 101 % of control | endpoint: mean survival time, dose: 12.5 mg/kg/injection, schedule: Q04DX003 (ip), vehicle: distilled water + Tween-80 101 % of control | endpoint: mean survival time, dose: 25.0 mg/kg/injection, schedule: Q04DX003 (ip), vehicle: distilled water + Tween-80 95 % of control | endpoint: mean survival time, dose: 50.0 mg/kg/injection, schedule: Q04DX003 (ip), vehicle: distilled water + Tween-80 89 % of control | endpoint: mean survival time, dose: 100.0 mg/kg/injection, schedule: Q04DX003 (ip), vehicle: distilled water + Tween-80 92 % of control

C=C1C(=O)OC2(C)C(C)=C(C)C12C (stereo not drawn)
inactive: endpoint: mean survival time, dose: 100.0 mg/kg/injection, schedule: Q04DX003 (ip), vehicle: saline 101 % of control | endpoint: mean survival time, dose: 200.0 mg/kg/injection, schedule: Q04DX003 (ip), vehicle: saline 112 % of control | endpoint: mean survival time, dose: 400.0 mg/kg/injection, schedule: Q04DX003 (ip), vehicle: saline 108 % of control

CNC(=O)Oc1cccn(C(=O)NC)c1=O
inactive: endpoint: mean survival time, dose: 12.5 mg/kg/injection, schedule: Q01DX009 (ip), vehicle: saline 98 % of control and 101 % of control | endpoint: mean survival time, dose: 25.0 mg/kg/injection, schedule: Q01DX009 (ip), vehicle: saline 103 % of control and 107 % of control | endpoint: mean survival time, dose: 50.0 mg/kg/injection, schedule: Q01DX009 (ip), vehicle: saline 107 % of control and 109 % of control | endpoint: mean survival time, dose: 75.0 mg/kg/injection, schedule: Q01DX009 (ip), vehicle: Klucel (hydroxypropylcellulose) (HPC) 112 % of control | endpoint: mean survival time, dose: 75.0 mg/kg/injection, schedule: Q01DX009 (ip), vehicle: saline 104 % of control and 109 % of control and 112 % of control | endpoint: mean survival time, dose: 100.0 mg/kg/injection, schedule: Q01DX009 (ip), vehicle: saline 115 % of control | endpoint: mean survival time, dose: 150.0 mg/kg/injection, schedule: Q01DX009 (ip), vehicle: saline 113 % of control and 110 % of control

COc1cc2c(cc1OC)C(Cc1ccc([N+](=O)[O-])cc1)=NCC2
inactive: endpoint: mean survival time, dose: 100.0 mg/kg/injection, schedule: Q01DX001 (ip), vehicle: saline 96 % of control | endpoint: mean survival time, dose: 200.0 mg/kg/injection, schedule: Q01DX001 (ip), vehicle: saline 96 % of control | endpoint: mean survival time, dose: 400.0 mg/kg/injection, schedule: Q01DX001 (ip), vehicle: saline 102 % of control
